US10660874B2, “Ecteinamycin, compositions and uses thereof” (Wisconsin Alumni Research Foundation, priority 2014, dated 2020)
≈ marks a conversion by molar mass, not a printed value.

Experiments:
C. difficile = settings: reported; cited from earlier work
[1] = in vivo; cited from earlier work
MSSA (ATCC #29213) = test: MIC, dilution antimicrobial susceptibility test; assay type: cell-based, Methicillin-sensitive Staphylococcus aureus; settings: Staphylococcus aureus, 18 h
Experimental: (§1) Ecteinamycin was tested for antibacterial activity against C. difficile (ATCC BAA-1870), MRSA (ATCC #33591), MSSA (ATCC #29213), E. coli (ATCC #25922), P. aeruginosa (ATCC #27853), and VRE (ATCC), and MICs were determined using a dilution antimicrobial susceptibility test for aerobic (MRSA, MSSA, E. coli, P. aeruginosa, and VRE) and anaerobic (C. difficile) bacteria. Ecteinamycin was dissolved in DMSO, serially diluted to 10 concentrations (0.0313-32 μg/mL), and tested in a 96-well plate. […] Ecteinamycin and vancomycin were tested in triplicate. Six untreated media controls were included on each plate. For MRSA, MSSA, E. coli, and P. aeruginosa, the plates were incubated at 33° C. for 18 h. For C. difficile, the plate was incubated at 36° C. for 48 h anaerobically and then read visually using a mirror apparatus. All manipulations to the plate were done inside the anaerobe chamber. The MIC was determined as the lowest concentration that inhibited visible growth.

MRSA (ATCC #33591) = test: MIC, dilution antimicrobial susceptibility test; assay type: cell-based, Methicillin-resistant Staphylococcus aureus; settings: Staphylococcus aureus, 18 h
Experimental: as §1

[2] = system: S. aureus (ATCC #29213) cells; test: Membrane depolarization assay (DiOC2(3), flow cytometry); assay type: cell-based; settings: positive control, 10 μL of 500 μM in 1 mL
Experimental: S. aureus (ATCC #29213) cells were grown to log phase (14 h) in Mueller Hinton Broth cation-adjusted (MHB50) and were diluted to 0.07 OD600 with media. One mL aliquots were transferred to 1.5 mL centrifuge tubes and treated with the following in triplicate: 10 μL DMSO (control), 10 μL of 600 μg/mL ecteinamycin, 10 μL of 3.2 mg/mL ecteinamycin (1), 10 μL of 500 μM carbonyl cyanide m-chlorophenythydrazone (CCCP), and 10 μL of 3.2 mg/mL rifampicin. Additionally, each tube received 10 μL of 3 mM DiOC2(3) (3,3′-diethyloxacarbocyanine iodide). The tubes were shaken for 15 minutes at room temperature. The cells were then analyzed with a FACSCalibur (BD Biosciences) flow cytometer and CellQuestPro software (BD Biosciences). Collected data represent the geometric means of fluorescence of 40,000 gated events.
Flow cytometry was used to determine if ecteinamycin, like other polyether ionophore antibiotics, depolarizes cell membranes. 3,3′-diethyloxacarbocyanine iodide (“DiOC2(3)”) fluoresces green in bacterial cells but shifts to red when the cell membrane is depolarized. Therefore, the ratio of red to green fluorescence is indicative of the membrane potential. S. aureus ATCC […] cells were treated with ecteinamycin at concentrations of 6 and 32 μg/mL.
All cells except the DMSO negative control were treated with DiOC2(3) and analyzed by flow cytometry. […]

For `CC[C@@]1([C@@H]2O[C@@H]([C@H]3O[C@@](O)(CO)[C@H](C)C[C@@H]3C)C[C@@H]2C)CC[C@H]([C@]2(C)CC[C@]3(C[C@H](O)[C@@H](C)[C@@H]([C@@H](C)[C@@H](OC)[C@H](C)C(=O)O)O3)O2)O1` [monensin], the MIC (C. difficile) is listed as 0.5 µg/mL (≈ 0.745 µM) and the oral bioavailability [1] is listed as 30%.

For `CN[C@H](CC(C)C)C(=O)N[C@H]1C(=O)N[C@@H](CC(N)=O)C(=O)N[C@H]2C(=O)N[C@H]3C(=O)N[C@H](C(=O)N[C@H](C(=O)O)c4cc(O)cc(O)c4-c4cc3ccc4O)[C@H](O)c3ccc(c(Cl)c3)Oc3cc2cc(c3O[C@@H]2O[C@H](CO)[C@@H](O)[C@H](O)[C@H]2O[C@H]2C[C@](C)(N)[C@H](O)[C@H](C)O2)Oc2ccc(cc2Cl)[C@H]1O` [Vancomycin, reference compound], the MIC (MSSA (ATCC #29213)) was 1 µg/mL (≈ 0.69 µM) and the MIC (MRSA (ATCC #33591)) was 1 µg/mL (≈ 0.69 µM).

In the case of `CO[C@@H]1C[C@@H](C[C@H]2CC[C@H](C)[C@H]([C@@H](C)C(=O)O)O2)O[C@]2(O[C@](C)([C@H]3CC[C@@](C)([C@@H]4O[C@@H]([C@H]5O[C@@](O)(CO)[C@H](C)C[C@@H]5C)C[C@@H]4C)O3)C[C@H]2C)[C@@H]1C` [Nigericin], the MIC (C. difficile) is given as 0.0025 µg/mL (≈ 0.00345 µM).

For `N#CC(C#N)=NNc1cccc(Cl)c1` [CCCP, carbonyl cyanide m-chlorophenylhydrazone, reference compound], the “membrane depolarization (ratio of red to green fluorescence)” value [2] was “membrane depolarization to a greater extent than ecteinamycin”.
